From ChEMBL document CHEMBL1201862, “PubChem BioAssay data set” (2004)
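96-well plates; 48 h exposure; 5 concentrations. Endpoints by linear interpolation between flanking doses. Not reached: highest tested concentration assigned. The concentration for 50% growth inhibition is given as GI50.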 Activity calls are given as the source filed them. Rule as the data show it: active = GI50 up to about 1.1 µM and inactive = higher.

Tests used:
Assay in all cases: DTP human tumour cell line panel, 48 h
UACC-257 = test system: UACC-257
MDA-MB-231 = test system: MDA-MB-231
OVCAR-4 = test system: OVCAR-4
MOLT-4 = test system: MOLT-4
KM12 = test system: KM12
OVCAR-5 = test system: OVCAR-5
BT-549 = test system: BT-549
CAKI-1 = test system: CAKI-1
SN12C = test system: SN12C
MDA-MB-435 = test system: MDA-MB-435
OVCAR-8 = test system: OVCAR-8
A498 = test system: A498
K562 = test system: K562
RXF 393 = test system: RXF 393
NCI-H226 = test system: NCI-H226
EKVX = test system: EKVX
786-0 = test system: 786-0
NCI-H23 = test system: NCI-H23
PC-3 = test system: PC-3
U-251 = test system: U-251
M14 = test system: M14
SK-MEL-28 = test system: SK-MEL-28
ACHN = test system: ACHN
TK-10 = test system: TK-10
UO-31 = test system: UO-31
SK-OV-3 = test system: SK-OV-3
SF-268 = test system: SF-268
SK-MEL-5 = test system: SK-MEL-5
MDA-N = test system: MDA-N
SNB-19 = test system: SNB-19
T47D = test system: T47D
HCT-116 = test system: HCT-116
SNB-75 = test system: SNB-75
Hs-578T = test system: Hs-578T
UACC-62 = test system: UACC-62
SF-295 = test system: SF-295
A549 = test system: A549
COLO 205 = test system: COLO 205
SW-620 = test system: SW-620
HOP-92 = test system: HOP-92
NCI-H522 = test system: NCI-H522
SK-MEL-2 = test system: SK-MEL-2
CCRF-CEM = test system: CCRF-CEM
Malme-3M = test system: Malme-3M
DU-145 = test system: DU-145
NCI/ADR-RES = test system: NCI/ADR-RES
HCT-15 = test system: HCT-15
LOX IMVI = test system: LOX IMVI
OVCAR-3 = test system: OVCAR-3
RPMI-8226 = test system: RPMI-8226
HOP-62 = test system: HOP-62
IGROV-1 = test system: IGROV-1
HT-29 = test system: HT-29
SR = test system: SR
HL-60 = test system: HL-60
SF-539 = test system: SF-539
MCF7 = test system: MCF7
NCI-H460 = test system: NCI-H460
HCC 2998 = test system: HCC 2998

## CCOC(=O)/C=C1\c2ccccc2C(=O)N1CC(=O)OCC
UACC-257
  GI50: > 100 µM (inactive)
MDA-MB-231
  GI50: > 100 µM (inactive)
OVCAR-4
  GI50: > 100 µM (inactive)
MOLT-4
  GI50: > 100 µM (inactive)
KM12
  GI50: > 100 µM (inactive)
OVCAR-5
  GI50: > 100 µM (inactive)
BT-549
  GI50: > 100 µM (inactive)
CAKI-1
  GI50: > 100 µM (inactive)
SN12C
  GI50: > 100 µM (inactive)
MDA-MB-435
  GI50: > 100 µM (inactive)
OVCAR-8
  GI50: > 100 µM (inactive)
A498
  GI50: > 100 µM (inactive)
K562
  GI50: > 100 µM (inactive)
RXF 393
  GI50: > 100 µM (inactive)
NCI-H226
  GI50: > 100 µM (inactive)
EKVX
  GI50: > 100 µM (inactive)
786-0
  GI50: > 100 µM (inactive)
NCI-H23
  GI50: > 100 µM (inactive)
PC-3
  GI50: > 100 µM (inactive)
U-251
  GI50: > 100 µM (inactive)
M14
  GI50: > 100 µM (inactive)
SK-MEL-28
  GI50: > 100 µM (inactive)
ACHN
  GI50: > 100 µM (inactive)
TK-10
  GI50: > 100 µM (inactive)
UO-31
  GI50: > 100 µM (inactive)
SK-OV-3
  GI50: > 100 µM (inactive)
SF-268
  GI50: > 100 µM (inactive)
SK-MEL-5
  GI50: > 100 µM (inactive)
MDA-N
  GI50: > 100 µM (inactive)
SNB-19
  GI50: > 100 µM (inactive)
T47D
  GI50: > 100 µM (inactive)
HCT-116
  GI50: > 100 µM (inactive)
SNB-75
  GI50: 77.1 µM (inactive)
Hs-578T
  GI50: > 100 µM (inactive)
UACC-62
  GI50: > 100 µM (inactive)
SF-295
  GI50: > 100 µM (inactive)
A549
  GI50: > 100 µM (inactive)
COLO 205
  GI50: > 100 µM (inactive)
SW-620
  GI50: > 100 µM (inactive)
HOP-92
  GI50: 39.9 µM (inactive)
NCI-H522
  GI50: > 100 µM (inactive)
SK-MEL-2
  GI50: > 100 µM (inactive)
CCRF-CEM
  GI50: > 100 µM (inactive)
Malme-3M
  GI50: > 100 µM (inactive)
DU-145
  GI50: > 100 µM (inactive)
NCI/ADR-RES
  GI50: 50 µM (inactive)
HCT-15
  GI50: > 100 µM
LOX IMVI
  GI50: 75.5 µM (inactive)
OVCAR-3
  GI50: > 100 µM (inactive)
RPMI-8226
  GI50: > 100 µM (inactive)
HOP-62
  GI50: > 100 µM (inactive)
IGROV-1
  GI50: > 100 µM (inactive)

## N=C(c1ccc(-c2cn3cc(C(=N)N4CCCC4)ccc3n2)cc1)N1CCCC1
UACC-257
  GI50: > 100 µM (inactive)
MDA-MB-231
  GI50: > 100 µM (inactive)
OVCAR-4
  GI50: > 100 µM (inactive)
MOLT-4
  GI50: > 100 µM (inactive)
KM12
  GI50: > 100 µM (inactive)
OVCAR-5
  GI50: > 100 µM (inactive)
BT-549
  GI50: > 100 µM (inactive)
HT-29
  GI50: > 100 µM (inactive)
CAKI-1
  GI50: > 100 µM (inactive)
SN12C
  GI50: > 100 µM (inactive)
MDA-MB-435
  GI50: > 100 µM (inactive)
OVCAR-8
  GI50: > 100 µM (inactive)
K562
  GI50: > 100 µM (inactive)
RXF 393
  GI50: > 100 µM (inactive)
NCI-H226
  GI50: > 100 µM (inactive)
EKVX
  GI50: > 100 µM (inactive)
786-0
  GI50: > 100 µM (inactive)
NCI-H23
  GI50: > 100 µM (inactive)
PC-3
  GI50: > 100 µM (inactive)
U-251
  GI50: > 100 µM (inactive)
M14
  GI50: > 100 µM (inactive)
SK-MEL-28
  GI50: > 100 µM (inactive)
ACHN
  GI50: > 100 µM (inactive)
TK-10
  GI50: > 100 µM (inactive)
UO-31
  GI50: > 100 µM (inactive)
SK-OV-3
  GI50: > 100 µM (inactive)
SF-268
  GI50: > 100 µM (inactive)
SK-MEL-5
  GI50: > 100 µM (inactive)
MDA-N
  GI50: > 100 µM (inactive)
SNB-19
  GI50: > 100 µM (inactive)
T47D
  GI50: > 100 µM (inactive)
HCT-116
  GI50: > 100 µM (inactive)
SNB-75
  GI50: > 100 µM (inactive)
Hs-578T
  GI50: > 100 µM (inactive)
UACC-62
  GI50: > 100 µM (inactive)
SF-295
  GI50: > 100 µM (inactive)
A549
  GI50: > 100 µM (inactive)
COLO 205
  GI50: > 100 µM (inactive)
SW-620
  GI50: > 100 µM (inactive)
HOP-92
  GI50: 3.86 µM (inactive)
NCI-H522
  GI50: > 100 µM (inactive)
SK-MEL-2
  GI50: > 100 µM (inactive)
SR
  GI50: > 100 µM (inactive)
CCRF-CEM
  GI50: 20.8 µM (inactive)
Malme-3M
  GI50: > 100 µM (inactive)
DU-145
  GI50: > 100 µM (inactive)
NCI/ADR-RES
  GI50: > 100 µM (inactive)
HCT-15
  GI50: > 100 µM
LOX IMVI
  GI50: > 100 µM (inactive)
OVCAR-3
  GI50: > 100 µM (inactive)
RPMI-8226
  GI50: > 100 µM (inactive)
HOP-62
  GI50: > 100 µM (inactive)
HL-60
  GI50: 0.0303 µM (active)
IGROV-1
  GI50: > 100 µM (inactive)

## CC(NC(=O)NC(C)(C)C)NC(=O)C(N)CC(=O)O (stereo not drawn)
UACC-257
  GI50: > 100 µM (inactive)
MDA-MB-231
  GI50: > 100 µM (inactive)
OVCAR-4
  GI50: > 100 µM (inactive)
MOLT-4
  GI50: > 100 µM (inactive)
KM12
  GI50: > 100 µM (inactive)
OVCAR-5
  GI50: > 100 µM (inactive)
BT-549
  GI50: > 100 µM (inactive)
HT-29
  GI50: > 100 µM (inactive)
CAKI-1
  GI50: > 100 µM (inactive)
SN12C
  GI50: > 100 µM (inactive)
MDA-MB-435
  GI50: > 100 µM (inactive)
OVCAR-8
  GI50: > 100 µM (inactive)
A498
  GI50: > 100 µM (inactive)
K562
  GI50: > 100 µM (inactive)
RXF 393
  GI50: > 100 µM (inactive)
NCI-H226
  GI50: > 100 µM (inactive)
EKVX
  GI50: > 100 µM (inactive)
786-0
  GI50: > 100 µM (inactive)
NCI-H23
  GI50: > 100 µM (inactive)
PC-3
  GI50: > 100 µM (inactive)
U-251
  GI50: > 100 µM (inactive)
M14
  GI50: > 100 µM (inactive)
SK-MEL-28
  GI50: > 100 µM (inactive)
ACHN
  GI50: > 100 µM (inactive)
TK-10
  GI50: > 100 µM (inactive)
SF-539
  GI50: > 100 µM (inactive)
UO-31
  GI50: > 100 µM (inactive)
SK-OV-3
  GI50: 15.8 µM (inactive)
SF-268
  GI50: > 100 µM (inactive)
SK-MEL-5
  GI50: > 100 µM (inactive)
MDA-N
  GI50: > 100 µM (inactive)
SNB-19
  GI50: > 100 µM (inactive)
T47D
  GI50: > 100 µM (inactive)
HCT-116
  GI50: > 100 µM (inactive)
SNB-75
  GI50: > 100 µM (inactive)
Hs-578T
  GI50: > 100 µM (inactive)
UACC-62
  GI50: 14.4 µM (inactive)
SF-295
  GI50: > 100 µM (inactive)
A549
  GI50: > 100 µM (inactive)
COLO 205
  GI50: > 100 µM (inactive)
SW-620
  GI50: > 100 µM (inactive)
HOP-92
  GI50: > 100 µM (inactive)
NCI-H522
  GI50: > 100 µM (inactive)
SK-MEL-2
  GI50: > 100 µM (inactive)
CCRF-CEM
  GI50: > 100 µM (inactive)
Malme-3M
  GI50: > 100 µM (inactive)
MCF7
  GI50: > 100 µM (inactive)
DU-145
  GI50: > 100 µM (inactive)
NCI/ADR-RES
  GI50: > 100 µM (inactive)
HCT-15
  GI50: > 100 µM
NCI-H460
  GI50: > 100 µM (inactive)
LOX IMVI
  GI50: > 100 µM (inactive)
HCC 2998
  GI50: > 10 µM (inactive)
OVCAR-3
  GI50: > 100 µM (inactive)
RPMI-8226
  GI50: > 100 µM (inactive)
HOP-62
  GI50: > 100 µM (inactive)
IGROV-1
  GI50: > 100 µM (inactive)
